Values of other authors in patent publication US20190110514A1, “KITS COMPRISING SATIETY-INDUCING FORMULATIONS” (PERORA GMBH, priority 2016, published 2019).

Experiments:
satiety signalling = details: infusion into the duodenum by feeding tube
[1] = rat feeding study; independent from intake

Row | SMILES | satiety signalling (satiety signalling) | true digestibility of stearic acid from tristearin [1] [g/g]
1 | CCCCCCCC/C=C\CCCCCCCC(=O)O [oleic acid] | strong satiety signalling | –
2 | CCCCCCCCCCCCCCCCCC(=O)OCC(COC(=O)CCCCCCCCCCCCCCCCC)OC(=O)CCCCCCCCCCCCCCCCC [tristearin] | – | 0.15
3 | CCCCCCCCCCCC(=O)O [lauric acid] | strong satiety signalling | –
